{
  "source": "patent US20150050299A1",
  "about": "“METHODS FOR ENHANCING IMMUNE RESPONSE” (priority 2010, published 2015)",
  "molecular_target": "CXCR4 receptor (Homo sapiens, UniProt P61073)",
  "sequence (P61073 whole entry)": "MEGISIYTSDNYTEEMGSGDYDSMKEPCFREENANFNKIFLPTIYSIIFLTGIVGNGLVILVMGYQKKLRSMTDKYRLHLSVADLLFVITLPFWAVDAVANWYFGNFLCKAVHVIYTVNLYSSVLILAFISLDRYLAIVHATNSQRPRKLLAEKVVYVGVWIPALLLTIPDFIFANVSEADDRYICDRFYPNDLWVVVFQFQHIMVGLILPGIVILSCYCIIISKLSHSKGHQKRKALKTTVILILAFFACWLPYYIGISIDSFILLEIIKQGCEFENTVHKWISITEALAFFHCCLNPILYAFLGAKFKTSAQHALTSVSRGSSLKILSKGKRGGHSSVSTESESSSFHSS",
  "test": "binding of radiolabeled SDF-1α to the CXCR4 receptor",
  "conditions": "10 μM",
  "description": "Alternative mechanisms might also be responsible for the observed immune inducing effects of PBT. The FDA-approved compound, plerixafor (also known as AMD3100), is used as a hematopoietic stem cell mobilizer for use in combination with granulocyte-colony stimulating factor (G-CSF) for peripheral blood collection and subsequent autologous transplantation in patients with non-Hodgkin's lymphoma and multiple myeloma. […] We tested the effect of 10 μM AMXT 1501 on the binding of radiolabeled SDF-1α to the CXCR4 receptor and found no inhibition. […] Since an interaction between AMXT 1501 and the CXCR4 receptor was not observed, a polyamine-dependant mechanism of immune-suppression is maintained.",
  "data": [
    {"smiles": "CCCCCCCCCCCCCCCC(=O)NCCCC[C@@H](N)C(=O)NCCCNCCCCNCCCN", "note": "[AMXT 1501, D-Lys(C16acyl)-Spm]", "values": [
      {"measurement": "inhibition of radiolabeled SDF-1α binding", "result": "no inhibition"}
    ]}
  ]
}
